Test results published in US10889575B2, “4,4-diphenylpiperidine compounds or pharmaceutically acceptable salts thereof, pharmaceutical compositions and uses thereof” (Academy of Military Medical Sciences, priority 2017, dated 2021).
Where “and” joins values, the source holds several entries; their conditions need not be identical. Identical values can stand only once. Counter-ions that a name gives are not always drawn. Like-named read-outs stand apart in the source and are kept apart here.

Legend:
[1] = tested on: acetic acid writhing in mice; assay: mouse acetic acid writhing model (analgesic effect); format: in vivo, Kunming mice; details: intragastric 30 mg/kg; for Writhing inhibition rate (%): 40 min before i.p. 0.6% acetic acid, writhings counted over 15 min
From the text: 1. Experimental purposes: To determine the analgesic activity of Compound (4) hydrochloride and Compounds (1), (2), (3), (5) in a mouse acetic acid writhing model.
2. Experimental materials: Kunming mice (18-22 g), half male and half female, were provided by the Experimental Animal Center of the Academy of Military Medical Sciences.
The mice were weighed and labeled, 10 mice in each group (half male and half female), the mice were divided into 7 groups, including 5 experimental groups (using Compound (4) hydrochloride, Compound (1), (2), (3), (5), respectively), positive control group (using NMED-160) and negative control group (using normal saline). Among them, NMED-160 used in the positive control group was a selective small molecule N-type calcium ion channel blocker, which had entered the phase II clinical trial and could be synthesized by referring to document^[11], and the structural formula thereof is as follows: […]
The mice were intragastrically administered with drug (30 mg/kg). After 40 minutes, 0.4 mL of 0.6% (v/v) acetic acid was intraperitoneally injected. After 5 minutes, the number of mouse writhings in the subsequent 15 minutes was recorded. The inhibition rate of the drug on the acetic acid writhing in mice was calculated according to the following formula, and the analgesic effect of the drug was evaluated.
A represents the number of writhings in the negative control group;
B represents the number of writhings in the experimental groups or the positive control group.

[2] = tested on: N-type calcium ion channel (α1B/β1b/α2δ); assay: N-type calcium ion channel current suppression, two-electrode voltage clamp in Xenopus oocytes; format: cell-based; details: 10 μM
Method: To determine the current suppressing effects of Compound (4) hydrochloride and Compounds (1), (2), (3), (5) of the present invention on N-type calcium ion channel (α1B/β1b/α2δ) transiently expressed in Xenopus oocytes.
Plasmids α1B, α2δ, β1b were injected into Xenopus oocytes in concentration ratio of 1:1:1, and the total volume of the three plasmids injected into per cell was about 46 nL. The injected cells were placed in ND-96 medium at 18° C. for 48 hours, then the expressed current was recorded.
Perfusion administration method was adopted with a flow rate of 3 mL/min and a test drug concentration of 10 μM. Using two-electrode voltage clamp technique, the cell was clamped at −100 mV, stepped at 10 mV, depolarized to +60 mV, and the current was recorded.
Current inhibition rate (%)=100×(current amplitude after administration−current amplitude before administration)/current amplitude before administration

[3] = Rapid evaluation of pharmacokinetics in rats; format: in vivo, SD rats
Method: Compound (1) was dissolved in 25% (w/v) aqueous solution of hydroxypropyl-β-cyclodextrin;
Adult SD rats, 180-220 g in body weight, male, purchased from the Animal Center of the Academy of Military Medical Sciences, Animal Certificate SCXK-(Army)-2012-0004;
Six adult SD rats were randomly numbered, and divided into 2 groups to receive intravenous injection (i.v., 1.85 mg/kg) and oral administration (p.o., 11 mg/kg) of Compound (1), respectively; blood samples were collected at 0.1 mL before administration and 2 minutes, 5 minutes, 15 minutes, 30 minutes, 60 minutes, 2 hours, 4 hours, 7 hours and 24 hours after administration, placed in anticoagulation tubes, centrifuged for 15 minutes (3500 rpm) to separate plasma, and 0.05 mL plasma samples were accurately taken and frozen in a refrigerator at −30° C. for later tests.
To the 0.05 mL rat plasma sample, 0.3 mL of acetonitrile containing the internal standard substance megestrol (100 ng/mL) and 0.005 mL of blank acetonitrile were added, vortexed for 1 minute on a vortex mixer, and centrifuged for 10 minutes (14,000 g), about 0.15 mL of the supernatant was taken and placed into an injection vial, injected 5 μL to LC-MS/MS for detection and analysis by referring to the method of the above section 2. […] The results of 1 # to 3 # were averaged, the results of 4 # to 6 # were averaged, and the relationship curves of the average concentrations of Compound (1) in the rats of i.v. administration and in the rats of p.o. administration against time were obtained and shown in FIG. 2. The Winnolin pharmacokinetic software was used to analyze the measured data and calculate the main pharmacokinetic parameters, including the area under curve (AUC), clearance rate (CL), apparent distribution volume (V), terminal elimination half life (t1/2) and mean residence time (MRT) for the intravenous injection, as well as the area under curve (AUC), terminal elimination half life (t1/2), mean residence time (MRT), peak concentration (Cmax), time to peak (Tmax) and biological force (F) for the oral administration.

[4] = in vivo; details: SD, rat, iv
[5] = Evaluation of the central nervous system distribution in rats; details: for Kp at 2 h: SD, rat
[6] = male, SD, rat, plasma, intravenous injection 1.85 mg/kg, n = 3
[7] = male, SD, rat, plasma, oral administration 11 mg/kg, n = 3

## CN(C)c1ccc(CN2CCC(c3ccccc3)(c3ccccc3)CC2)cc1 [Compound (3), 1-(4-dimethylaminobenzyl)-4,4-diphenylpiperidine]
[1]
  Writhing inhibition rate (%): 23.17%
[2]
  Current inhibition rate (%): 42.3%
other
  melting point: 128 to 130 °C

## c1ccc(C2(c3ccccc3)CCN(Cc3cccs3)CC2)cc1 [Compound (5), 1-(2-methylthienyl)-4,4-diphenylpiperidine]
[1]
  Writhing inhibition rate (%): 46.87%
[2]
  Current inhibition rate (%): 45.3%

## COc1cc(CN2CCC(c3ccccc3)(c3ccccc3)CC2)cc(OC)c1OC (as salt: hydrochloride)
other
  melting point: 235 to 237 °C

## O=C(CC(c1ccccc1)c1ccccc1)N1CCN(C(c2ccccc2)c2ccccc2)CC1 [NMED-160, reference compound]
[1]
  Writhing inhibition rate (%): 51.75%

## O=C(CN1CCC(c2ccccc2)(c2ccccc2)CC1)c1ccc2[nH]c(=O)oc2c1 [Compound (2), 6-(3-(4,4-diphenylpiperidinyl)-acetyl)benzoxazolin-2-one]
[1]
  Writhing inhibition rate (%): 54.66%
[2]
  Current inhibition rate (%): 65.6%

## O=C(CCN1CCC(c2ccccc2)(c2ccccc2)CC1)c1ccc2[nH]c(=O)oc2c1 [Compound (1), 6-(3-(4,4-diphenylpiperidinyl)-propionyl)benzoxazolin-2-one]
[1]
  Writhing inhibition rate (%): 58.77%
[1]; acetic acid writhing
  analgesic effect (in words): comparable to that of NMED-160
[2]
  Current inhibition rate (%): 70.6%
[3]; i.v. clearance compared with rat liver blood flow (3.3 L/h/kg)
  effect of liver metabolism on the clearance in vivo: about 70%
[3]; intravenous injection 1.85 mg/kg, n = 3, 1.85 mg/kg
  V: 12.39 L/kg and 12.39 ± 3.17 L/kg
[3]; [6]
  AUC: 750 ± 98.2 ng·h/mL
  MRT: 3.87 ± 0.18 h
  clearance: 39.7 mL/min/kg
  half-life: 5 ± 0.88 h
[3]; [7]
  AUC: 1670 ± 222 ng·h/mL
  Cmax: 188 ± 28.5 ng/mL
  MRT: 5.6 ± 0.46 h
  half-life: 5.4 ± 1.5 h
[3]; male, SD, rat, plasma, po, 11 mg/kg, oral administration 11 mg/kg, n = 3, read-out: Tmax
  Tmax: 1 to 2 h
[3]; oral 11 mg/kg vs intravenous 1.85 mg/kg, n = 3
  F: 44.7% and 44.7 ± 5.93%
[3]; oral administration 11 mg/kg, n = 3, 11 mg/kg
  Tmax: 1.33 ± 0.58 h
other
  melting point: 236 °C (dec.)
[4]
  concentration at 2 h: 271 ng/mL and 998 ng/g
[5]; brain/plasma, intravenous
  Kp at 2 h: 3 ± 0.71
[5]; in vivo
  Kp at 2 h: 3 to 4
[5]; spinal cord/plasma, intravenous
  Kp at 2 h: 3.7 ± 1.3
[5]; rats, i.v. bolus then instillation, 2 hours after administration, n = 3
  Concentration, Rat brain tissue: 808.3 ± 233.8 ng/g

## COc1cc(CN2CCC(c3ccccc3)(c3ccccc3)CC2)cc(OC)c1OC.Cl [Compound (4) hydrochloride, 1-(3,4,5-trimethoxybenzyl)-4,4-diphenylpiperidine hydrochloride]
[1]
  Writhing inhibition rate (%): 39.68%
[2]
  Current inhibition rate (%): 54.1%
